A word on the IC50: it is the midpoint of a concentration-inhibition curve.

This assay addresses T1, Recombinant human TYK2 catalytic domain (amino acids 871-1187) (Homo sapiens, UniProt P29597).
T1 construct: catalytic domain (amino acids 871-1187)
T1 sequence (P29597 871-1187): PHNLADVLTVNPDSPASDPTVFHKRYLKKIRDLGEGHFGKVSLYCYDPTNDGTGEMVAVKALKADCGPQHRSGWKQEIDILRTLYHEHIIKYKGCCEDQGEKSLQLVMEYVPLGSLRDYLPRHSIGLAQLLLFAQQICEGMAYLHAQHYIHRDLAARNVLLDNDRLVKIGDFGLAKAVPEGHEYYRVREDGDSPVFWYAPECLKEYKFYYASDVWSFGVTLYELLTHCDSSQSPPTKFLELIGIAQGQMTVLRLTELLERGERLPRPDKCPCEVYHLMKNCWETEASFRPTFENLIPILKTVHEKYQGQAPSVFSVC
The assay is described as follows: TYK2 radioactive assay polyGT substrate. Also: 0.1 µM ATP. It counts as biochemical. As for the experimental part: After 120 min at 30° C., reactions were stopped by adding 25 μL/well of 150 mM phosphoric acid. […] Plates were washed 6 times with 300 μL per well of a 75 mM phosphoric acid solution and the bottom of the plates is sealed. […] Kinase activity is calculated by subtracting counts per min (cpm) obtained in the presence of a positive control inhibitor (10 μM staurosporine) from cpm obtained in the presence of vehicle. The ability of a test compound to inhibit this activity (or percentage inhibition) is determined as: […]
cpm test compound=cpm determined for sample with test compound present cpm control=cpm determined for sample with positive control inhibitor cpm vehicle=cpm determined in the presence of vehicle
Dose dilution series were prepared for the compounds enabling the testing of dose-response effects in the TYK2 assay and the calculation of the IC50 for each compound. Each compound is routinely tested at concentration of 20 μM followed by a 1/5 serial dilution, 10 points in a final concentration of 1% DMSO.

As to `Cc1cc(C#N)ncc1Oc1cc(Nc2ccc(C(=O)N3C[C@@H](O)[C@H](F)C3)cn2)c2ncn(C)c2n1` (racemic) [Compound 140, 4-methyl-5-[3-methyl-7-[[5-[rac-(3R,4R)-3-fluroo-4-hydroxypyrrolidine-1-carbonyl]pyridin-2-yl]amino]imidazo[4,5-b]pyridin-5-yl]oxypyridine-2-carbonitrile], the IC50 was 2.87 nM.

For the compound `CO[C@@H]1CN(C(=O)c2ccc(Nc3cc(Oc4cnc(C#N)cc4C)nc4c3ncn4C)nc2)C[C@H]1F` (racemic) [Compound 142, 4-methyl-5-[3-methyl-7-[[5-[rac-(3R,4R)-3-fluoro-4-methoxypyrrolidine-1-carbonyl]pyridin-2-yl]amino]imidazo[4,5-b]pyridin-5-yl]oxypyridine-2-carbonitrile], the IC50 is 4.53 nM.

As for `CCNC(=O)Cc1ccc(Nc2cc(Oc3cnc(C#N)cc3C)nc3c2ncn3C)cc1` [Compound 27, 2-{4-[5-(6-Cyano-4-methyl-pyridin-3-yloxy)-3-methyl-3H-imidazo[4,5-b]pyridin-7-ylamino]-phenyl}-N-ethyl-acetamide], the IC50 stood at 38.9 nM.

For the compound `Cc1cc(C#N)ncc1Oc1cc(Nc2ccc(C(=O)N3CCOCC3)nc2)c2ncn(C)c2n1` [Compound 28, 4-Methyl-5-{3-methyl-7-[6-(morpholine-4-carbonyl)-pyridin-3-ylamino]-3H-imidazo[4,5-b]pyridin-5-yloxy}-pyridine-2-carbonitrile], the IC50 was 27.1 nM.

Consider `CNC(=O)c1ccc(Nc2cc(Oc3cnc(C#N)cc3C)nc3c2ncn3C)cn1` [Compound 29, 5-[5-(6-Cyano-4-methyl-pyridin-3-yloxy)-3-methyl-3H-imidazo[4,5-b]pyridin-7-ylamino]-pyridine-2-carboxylic acid methylamide], for which the IC50 is 97.4 nM.

As for `Cc1cc(C#N)ncc1Oc1cc(Nc2ccc(N3CCN(CC(F)(F)F)CC3)nn2)c2ncn(C)c2n1` [Compound 42, 4-Methyl-5-(3-methyl-7-{6-[4-(2,2,2-trifluoro-ethyl)-piperazin-1-yl]-pyridazin-3-ylamino}-3H-imidazo[4,5-b]pyridin-5-yloxy)-pyridine-2-carbonitrile], the IC50 came to 2.74 nM.

For the compound `Cc1cc(C#N)ncc1Oc1cc(Nc2ccc(N3CCC(C#N)CC3)nn2)c2ncn(C)c2n1` [Compound 45, 5-{7-[6-(4-Cyano-piperidin-1-yl)-pyridazin-3-ylamino]-3-methyl-3H-imidazo[4,5-b]pyridin-5-yloxy}-4-methyl-pyridine-2-carbonitrile], the IC50 was 2.17 nM.

`Cc1cc(C#N)ncc1Oc1cc(Nc2ccc(C(=O)N(C)C)c(C)n2)c2ncn(C)c2n1` [Compound 77, 6-[[5-[(6-cyano-4-methyl-3-pyridyl)oxy]-3-methyl-imidazo[4,5-b]pyridin-7-yl]amino]-N,N,2-trimethyl-pyridine-3-carboxamide]: the IC50 amounted to 2.98 nM.

Turning to `Cc1cc(C#N)ncc1Oc1cc(Nc2ccc(C(=O)NCCCO)cn2)c2ncn(C)c2n1` [Compound 101, 6-[[5-[(6-cyano-4-methyl-3-pyridyl)oxy]-3-methyl-imidazo[4,5-b]pyridin-7-yl]amino]-N-(3-hydroxypropyl)pyridine-3-carboxamide], the IC50 amounted to 9.36 nM.

Turning to `Cc1cc(C#N)ncc1Oc1cc(Nc2ccc(N3CCOCC3)cc2)c2ncn(C)c2n1` [Compound 109, 4-methyl-5-[3-methyl-7-(4-morpholinoanilino)imidazo[4,5-b]pyridin-5-yl]oxy-pyridine-2-carbonitrile], the IC50 came out at 24.4 nM.

For `Cc1cc(C#N)ncc1Oc1cc(Nc2ccc(N3CCN(C)CC3)cc2)c2ncn(C)c2n1` [Compound 110, 4-methyl-5-[3-methyl-7-[4-(4-methylpiperazin-1-yl)anilino]imidazo[4,5-b]pyridin-5-yl]oxy-pyridine-2-carbonitrile], the IC50 worked out at 26.7 nM.

For the compound `Cc1cc(C#N)ncc1Oc1cc(Nc2ccc(C(=O)N3CC4(CCO4)C3)cn2)c2ncn(C)c2n1` [Compound 120, 4-methyl-5-[3-methyl-7-[[5-(3-oxa-6-azaspiro[3.3]heptane-6-carbonyl)-2-pyridyl]amino]imidazo[4,5-b]pyridin-5-yl]oxy-pyridine-2-carbonitrile], the IC50 came out at 1.57 nM.

In the case of `COC1(C)CN(C(=O)c2ccc(Nc3cc(Oc4cnc(C#N)cc4C)nc4c3ncn4C)nc2)C1` [Compound 121, 5-[7-[[5-(3-methoxy-3-methyl-azetidine-1-carbonyl)-2-pyridyl]amino]-3-methyl-imidazo[4,5-b]pyridin-5-yl]oxy-4-methyl-pyridine-2-carbonitrile], the 50% inhibitory concentration (IC50) amounted to 1.9 nM.

On to `Cc1cc(C#N)ncc1Oc1cc(Nc2ccc(C(=O)N3CC(C(=O)OC(C)(C)C)C3)cn2)c2ncn(C)c2n1` [Compound 122, tert-butyl 1-[6-[[5-[(6-cyano-4-methyl-3-pyridyl)oxy]-3-methyl-imidazo[4,5-b]pyridin-7-yl]amino]pyridine-3-carbonyl]azetidine-3-carboxylate], for which the IC50 came to 3.03 nM.

For the compound `Cc1cc(C#N)ncc1Oc1cc(Nc2ccc(C(=O)N3CC4(CN(C)C4)C3)cn2)c2ncn(C)c2n1` [Compound 123, 4-methyl-5-[3-methyl-7-[[5-(6-methyl-2,6-diazaspiro[3.3]heptane-2-carbonyl)-2-pyridyl]amino]imidazo[4,5-b]pyridin-5-yl]oxy-pyridine-2-carbonitrile], the IC50 was determined as 9.38 nM.

Consider `Cc1cc(C#N)ncc1Oc1cc(Nc2ccc(C(=O)N3CCC(O)CC3)cn2)c2ncn(C)c2n1` [Compound 124, 5-[7-[[5-(4-hydroxypiperidine-1-carbonyl)pyridin-2-yl]amino]-3-methylimidazo[4,5-b]pyridin-5-yl]oxy-4-methylpyridine-2-carbonitrile], for which the IC50 amounted to 2.51 nM.

In the case of `COC1CCN(C(=O)c2ccc(Nc3cc(Oc4cnc(C#N)cc4C)nc4c3ncn4C)nc2)CC1` [Compound 125, 5-[7-[[5-(4-methoxypiperidine-1-carbonyl)pyridin-2-yl]amino]-3-methylimidazo[4,5-b]pyridin-5-yl]oxy-4-methylpyridine-2-carbonitrile], the IC50 came to 2.26 nM.

As for `Cc1cc(C#N)ncc1Oc1cc(Nc2ccc(C(=O)N3CCC(N(C)C)CC3)cn2)c2ncn(C)c2n1` [Compound 126, 5-[7-[[5-[4-(dimethyalmino)piperidine-1-carbonyl]pyridin-2-yl]amino]-3-methylimidazo[4,5-b]pyridin-5-yl]oxy-4-methylpyridine-2-carbonitrile], the IC50 was found to be 5.54 nM.

`Cc1cc(C#N)ncc1Oc1cc(Nc2ccc(C(=O)N3CC[C@@H](O)C3)cn2)c2ncn(C)c2n1` [Compound 127, 5-[7-[[5-[(3R)-3-hydroxypyrrolidine-1-carbonyl]pyridin-2-yl]amino]-3-methylimidazo[4,5-b]pyridin-5-yl]oxy-4-methylpyridine-2-carbonitrile]: the IC50 is 3.36 nM.

For the compound `Cc1cc(C#N)ncc1Oc1cc(Nc2ccc(C(=O)N3CCN(C(=O)OC(C)(C)C)CC3)cn2)c2ncn(C)c2n1` [Compound 128, 4-{6-[5-(6-Cyano-4-methyl-pyridin-3-yloxy)-3-methyl-3H-imidazo[4,5-b]pyridin-7-ylamino]-pyridine-3-carbonyl}-piperazine-1-carboxylic acid tert-butyl ester], the IC50 worked out at 5.87 nM.

As to `COCCO[C@@H]1CCN(C(=O)c2ccc(Nc3cc(Oc4cnc(C#N)cc4C)nc4c3ncn4C)nc2)C1` [Compound 129, 5-[7-[[5-[(3R)-3-(2-methoxyethoxy)pyrrolidine-1-carbonyl]pyridin-2-yl]amino]-3-methylimidazo[4,5-b]pyridin-5-yl]oxy-4-methylpyridine-2-carbonitrile], the IC50 is 5.84 nM.

As for `Cc1cc(C#N)ncc1Oc1cc(Nc2ccc(C(=O)N3CCC(N(C)C(=O)OC(C)(C)C)C3)cn2)c2ncn(C)c2n1` (stereo not shown) [Compound 130, (1-{6-[5-(6-Cyano-4-methyl-pyridin-3-yloxy)-3-methyl-3H-imidazo[4,5-b]pyridin-7-ylamino]-pyridine-3-carbonyl}-pyrrolidin-3-yl)-methyl-carbamic acid tert-butyl ester], the IC50 worked out at 4.67 nM.

For the compound `Cc1cc(C#N)ncc1Oc1cc(Nc2ccc(C(=O)N3CCC4(COC4)C3)cn2)c2ncn(C)c2n1` [Compound 131, 4-methyl-5-[3-methyl-7-[[5-(2-oxa-7-azaspiro[3.4]octane-7-carbonyl)pyridin-2-yl]amino]imidazo[4,5-b]pyridin-5-yl]oxypyridine-2-carbonitrile], the IC50 was determined as 2.87 nM.

On to `Cc1cc(C#N)ncc1Oc1cc(Nc2ccc(C(=O)N3CC(CN(C)C)C3)cn2)c2ncn(C)c2n1` [Compound 132, 5-[7-[[5-[3-[(dimethylamino)methyl]azetidine-1-carbonyl]pyridin-2-yl]amino]-3-methylimidazo[4,5-b]pyridin-5-yl]oxy-4-methylpyridine-2-carbonitrile], for which the IC50 came out at 8.93 nM.

On to `Cc1cc(C#N)ncc1Oc1cc(Nc2ccc(C(=O)N3CC4(COC4)C3)cn2)c2ncn(C)c2n1` [Compound 134, 4-methyl-5-[3-methyl-7-[[5-(2-oxa-6-azaspiro[3.3]heptane-6-carbonyl)pyridin-2-yl]amino]imidazo[4,5-b]pyridin-5-yl]oxypyridine-2-carbonitrile], for which the half-inhibitory concentration (IC50) is 2.1 nM.

Source of the values: patent publication US11564923B2, “Compounds and pharmaceutical compositions thereof for the treatment of inflammatory disorders” (Galapagos NV, priority 2017, dated 2023).
